Measured values taken from patent US8222404B2, “[1,2,4]Thiadiazin-3-yl acetic acid compound and methods of making the acetic acid compound” (Anadys Pharmaceuticals, Inc., priority 2008, dated 2012).

test system: HCV Huh-luc/neo-ET replicon cells; assay: Luciferase-Based HCV Replicon Assay (EC50 (1b)); assay type: cell-based; conditions: 72 hours exposure, luciferase activity
Procedure, shortened: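 Replicon cells seeded, then exposed 24 h later to a compound concentration series in triplicate for 72 h. Luciferase luminescence read; % inhibition vs no-compound control, with 100 nM BILN-2061 as background, used to derive EC50 (1b).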

For `CC(C)(C)CCN1C(=O)C(C2=NS(=O)(=O)c3c(CNS(C)(=O)=O)csc3N2)=C(O)C2C3CCC(C4CC43)C21` (racemic) [Example 25, (rac-di-exo)-N-{3-[3-(3,3-Dimethyl-butyl)-6-hydroxy-4-oxo-3-aza-tetracyclo[6.3.2.0^2,7.0^9,11]tridec-5-en-5-yl]-1,1-dioxo-1,4-dihydro-1λ^6-thieno[2,3-e][1,2,4]thiadiazin-7-ylmethyl}-methanesulfonamide], the EC50 was ≤ 5 nM.

same assay, conditions: Hepatitis C virus, 72 hours exposure, luciferase activity

First: CC(C)CCC1(C)CN(c2ccccc2)C(=O)C(C2=NS(=O)(=O)c3c(CNS(C)(=O)=O)csc3N2)=C1O (stereo not shown) [Example 31, N-{3-[4-Hydroxy-5-methyl-5-(3-methyl-butyl)-2-oxo-1-phenyl-1,2,5,6-tetrahydro-pyridin-3-yl]-1,1-dioxo-1,4-dihydro-1λ^6-thieno[2,3-e][1,2,4]thiadiazin-7-ylmethyl}-methanesulfonamide]
Second: CC(C)CC1CN(Cc2ccc(F)cc2)C(=O)C(C2=NS(=O)(=O)c3c(CNS(C)(=O)=O)csc3N2)=C1O (racemic) [Example 17, rac-N-{3-[1-(4-Fluoro-benzyl)-4-hydroxy-5-isobutyl-2-oxo-1,2,5,6-tetrahydro-pyridin-3-yl]-1,1-dioxo-1,4-dihydro-1λ^6-thieno[2,3-e][1,2,4]thiadiazin-7-ylmethyl}-methanesulfonamide]
The EC50 of the first is higher: > 1000 nM for the first, 100 to 1000 nM for the second.

Compared with `CS(=O)(=O)NCc1csc2c1S(=O)(=O)N=C(C1=C(O)[C@@H]3[C@H]4CC[C@H](C4)[C@@H]3N(CC3(C(F)(F)F)CC3)C1=O)N2` [Example 29, N-{3-[(1R,2S,7R,8S)-6-Hydroxy-4-oxo-3-(1-trifluoromethyl-cyclopropylmethyl)-3-aza-tricyclo[6.2.1.0^2,7]undec-5-en-5-yl]-1,1-dioxo-1,4-dihydro-1λ^6-thieno[2,3-e][1,2,4]thiadiazin-7-ylmethyl}-methanesulfonamide], `CS(=O)(=O)NCc1csc2c1S(=O)(=O)N=C(C1=C(O)[C@@H]3[C@@H]4CC[C@@H](C4)[C@@H]3N(CCC3CC3)C1=O)N2` [Example 107, N-{3-[(1S,2S,7R,8R)-3-(2-Cyclopropyl-ethyl)-6-hydroxy-4-oxo-3-aza-tricyclo[6.2.1.0^2,7]undec-5-en-5-yl]-1,1-dioxo-1,4-dihydro-1λ^6-thieno[2,3-e][1,2,4]thiadiazin-7-ylmethyl}-methanesulfonamide] is higher in EC50: 5 to 20 nM for the first, 20 to 100 nM for the second. The first is the more potent here.

Compared with `CS(=O)(=O)NCc1csc2c1S(=O)(=O)N=C(C1=C(O)[C@@H]3C4CCC(CC4)[C@@H]3N(Cc3ccc(F)c(Cl)c3)C1=O)N2` [Example 44, N-{3-[(2S,7R)-3-(3-Chloro-4-fluoro-benzyl)-6-hydroxy-4-oxo-3-aza-tricyclo[6.2.2.0^2,7]dodec-5-en-5-yl]-1,1-dioxo-1,4-dihydro-1λ^6-thieno[2,3-e][1,2,4]thiadiazin-7-ylmethyl}-methanesulfonamide], `CS(=O)(=O)NCc1csc2c1S(=O)(=O)N=C(C1=C(O)[C@@H]3C4CCC(CC4)[C@@H]3N(Cc3ccc(F)cc3Cl)C1=O)N2` [Example 96, N-{3-[(2S,7R)-3-(2-Chloro-4-fluoro-benzyl)-6-hydroxy-4-oxo-3-aza-tricyclo[6.2.2.0^2,7]dodec-5-en-5-yl]-1,1-dioxo-1,4-dihydro-1λ^6-thieno[2,3-e][1,2,4]thiadiazin-7-ylmethyl}-methanesulfonamide] is higher in EC50: ≤ 5 nM for the first, 20 to 100 nM for the second. The first is the more potent here.

`CS(=O)(=O)NCc1csc2c1S(=O)(=O)N=C(C1=C(O)C3CCCCCC3N(Cc3ccc(F)c(Cl)c3)C1=O)N2` (racemic) [Example 123, (rac-cis)-N-{3-[1-(3-Chloro-4-fluoro-benzyl)-4-hydroxy-2-oxo-2,4a,5,6,7,8,9,9a-octahydro-1H-cyclohepta[b]pyridin-3-yl]-1,1-dioxo-1,4-dihydro-1λ^6-thieno[2,3-e][1,2,4]thiadiazin-7-ylmethyl}-methanesulfonamide] and `CS(=O)(=O)NCc1csc2c1S(=O)(=O)N=C(C1=C(O)C3CCCCC3N(CC3CCCCC3)C1=O)N2` (racemic) [Example 104, (rac-cis)-N-[3-(1-Cyclohexylmethyl-4-hydroxy-2-oxo-1,2,4a,5,6,7,8,8a-octahydro-quinolin-3-yl)-1,1-dioxo-1,4-dihydro-1λ^6-thieno[2,3-e][1,2,4]thiadiazin-7-ylmethyl]-methanesulfonamide] fall in the same range of EC50: 100 to 1000 nM for the first, 100 to 1000 nM for the second.

Compared with `CS(=O)(=O)NCc1ccc2c(c1)S(=O)(=O)N=C(C1=C(O)[C@@H]3[C@H]4CC[C@H](C4)[C@@H]3N(Cc3ccc(F)cc3)C1=O)N2` [Example 3, N-{3-[(1R,2S,7R,8S)-3-(4-Fluoro-benzyl)-6-hydroxy-4-oxo-3-aza-tricyclo[6.2.1.0^2,7]undec-5-en-5-yl]-1,1-dioxo-1,4-dihydro-1λ^6-benzo[1,2,4]thiadiazin-7-ylmethyl}-methanesulfonamide], `CS(=O)(=O)NCc1csc2c1S(=O)(=O)N=C(C1=C(O)[C@@H]3[C@H]4CC[C@H](C4)[C@@H]3N(Cc3ccc(F)cc3Cl)C1=O)N2` [Example 94, N-{3-[(1R,2S,7R,8S)-3-(2-Chloro-4-fluoro-benzyl)-6-hydroxy-4-oxo-3-aza-tricyclo[6.2.1.0^2,7]undec-5-en-5-yl]-1,1-dioxo-1,4-dihydro-1λ^6-thieno[2,3-e][1,2,4]thiadiazin-7-ylmethyl}-methanesulfonamide] is lower in EC50: 100 to 1000 nM for the first, 20 to 100 nM for the second.

First: CS(=O)(=O)NCc1csc2c1S(=O)(=O)N=C(C1=C(O)C3CCCCC3N(C3CCCCC3)C1=O)N2 (racemic) [Example 100, (rac-cis)-N-[3-(1-Cyclohexyl-4-hydroxy-2-oxo-1,2,4a,5,6,7,8,8a-octahydro-quinolin-3-yl)-1,1-dioxo-1,4-dihydro-1λ^6-thieno[2,3-e][1,2,4]thiadiazin-7-ylmethyl]-methanesulfonamide]
Second: CS(=O)(=O)NCc1csc2c1S(=O)(=O)N=C(C1=C(O)[C@@H]3[C@H]4CC[C@H](C4)[C@@H]3N(CC3CCCCC3)C1=O)N2 [Example 101, N-[3-((1R,2S,7R,8S)-3-Cyclohexylmethyl-6-hydroxy-4-oxo-3-aza-tricyclo[6.2.1.0^2,7]undec-5-en-5-yl)-1,1-dioxo-1,4-dihydro-1λ^6-thieno[2,3-e][1,2,4]thiadiazin-7-ylmethyl]-methanesulfonamide]
The EC50 of the first is higher: 100 to 1000 nM for the first, 20 to 100 nM for the second.

Compared with `CS(=O)(=O)NCc1csc2c1S(=O)(=O)N=C(C1=C(O)[C@@H]3[C@H]4CC[C@H](C4)[C@@H]3N(Cc3ccccc3)C1=O)N2` [Example 50, N-[3-((1R,2S,7R,8S)-3-Benzyl-6-hydroxy-4-oxo-3-aza-tricyclo[6.2.1.0^2,7]undec-5-en-5-yl)-1,1-dioxo-1,4-dihydro-1λ^6-thieno[2,3-e][1,2,4]thiadiazin-7-ylmethyl]-methanesulfonamide], `CS(=O)(=O)NCc1csc2c1S(=O)(=O)N=C(C1=C(O)[C@@H]3[C@@H]4CC[C@@H](C4)[C@@H]3N(CC3CCCCC3)C1=O)N2` [Example 102, N-[3-((1S,2S,7R,8R)-3-Cyclohexylmethyl-6-hydroxy-4-oxo-3-aza-tricyclo[6.2.1.0^2,7]undec-5-en-5-yl)-1,1-dioxo-1,4-dihydro-1λ^6-thieno[2,3-e][1,2,4]thiadiazin-7-ylmethyl]-methanesulfonamide] is higher in EC50: ≤ 5 nM for the first, 20 to 100 nM for the second. The first is the more potent here.

Work on `CC(C)C1CN(Cc2ccc(F)cc2)C(=O)C(C2=NS(=O)(=O)c3c(CNS(C)(=O)=O)csc3N2)=C1O` (racemic) [Example 13, rac-N-{3-[1-(4-Fluoro-benzyl)-4-hydroxy-5-isopropyl-2-oxo-1,2,5,6-tetrahydro-pyridin-3-yl]-1,1-dioxo-1,4-dihydro-1λ^6-thieno[2,3-e][1,2,4]thiadiazin-7-ylmethyl}-methanesulfonamide] yielded an EC50 of 100 to 1000 nM.
